Source: PubChem BioAssay (NCI)
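Interpolation was linear, between the two tested concentrations surrounding the appropriate level; five concentrations were tested over 48 hours in 96-well plates. TGI is the concentration that stops growth completely.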

Legend:
Experiment in all cases: growth of human tumour cells (NCI), 48 h
SF-295 CNS = tested on: SF-295 CNS
KM20L2 colon = tested on: KM20L2 colon
COLO 205 colon = tested on: COLO 205 colon
SNB-78 CNS = tested on: SNB-78 CNS
EKVX NSCLC = tested on: EKVX NSCLC
LXFL 529 NSCLC = tested on: LXFL 529 NSCLC
M14 melanoma = tested on: M14 melanoma
HCT-15 colon = tested on: HCT-15 colon
CAKI-1 renal = tested on: CAKI-1 renal
U251 CNS = tested on: U251 CNS
OVCAR-3 ovarian = tested on: OVCAR-3 ovarian
HT29 colon = tested on: HT29 colon
MOLT-4 leukemia = tested on: MOLT-4 leukemia
HCC-2998 colon = tested on: HCC-2998 colon
SK-MEL-5 melanoma = tested on: SK-MEL-5 melanoma
NCI-H460 lung = tested on: NCI-H460 lung
RPMI-8226 leukemia = tested on: RPMI-8226 leukemia
DMS 114 small cell lung = tested on: DMS 114 small cell lung
OVCAR-5 ovarian = tested on: OVCAR-5 ovarian
ACHN renal = tested on: ACHN renal
HOP-92 NSCLC = tested on: HOP-92 NSCLC
A549 NSCLC = tested on: A549 NSCLC
NCI-H226 lung = tested on: NCI-H226 lung
SK-OV-3 ovarian = tested on: SK-OV-3 ovarian
OVCAR-8 ovarian = tested on: OVCAR-8 ovarian
NCI-H23 lung = tested on: NCI-H23 lung
SNB-75 CNS = tested on: SNB-75 CNS
HOP-62 NSCLC = tested on: HOP-62 NSCLC
SN12C renal = tested on: SN12C renal
HOP-18 NSCLC = tested on: HOP-18 NSCLC
RXF 393 renal = tested on: RXF 393 renal
UACC-257 melanoma = tested on: UACC-257 melanoma
KM12 colon = tested on: KM12 colon
XF 498 CNS = tested on: XF 498 CNS
UO-31 renal = tested on: UO-31 renal
LOX IMVI melanoma = tested on: LOX IMVI melanoma
MALME-3M melanoma = tested on: MALME-3M melanoma
NCI-H522 lung = tested on: NCI-H522 lung
HL-60(TB) leukemia = tested on: HL-60(TB) leukemia
DMS 273 small cell lung = tested on: DMS 273 small cell lung
SK-MEL-28 melanoma = tested on: SK-MEL-28 melanoma
CCRF-CEM leukemia = tested on: CCRF-CEM leukemia
OVCAR-4 ovarian = tested on: OVCAR-4 ovarian
TK-10 renal = tested on: TK-10 renal
SW-620 colon = tested on: SW-620 colon
786-0 renal = tested on: 786-0 renal
K-562 leukemia = tested on: K-562 leukemia
SNB-19 CNS = tested on: SNB-19 CNS
SF-268 CNS = tested on: SF-268 CNS
DLD-1 colon = tested on: DLD-1 colon
IGROV1 ovarian = tested on: IGROV1 ovarian
M19-MEL melanoma = tested on: M19-MEL melanoma
SK-MEL-2 melanoma = tested on: SK-MEL-2 melanoma
SR leukemia = tested on: SR leukemia
A498 renal = tested on: A498 renal
HCT-116 colon = tested on: HCT-116 colon
SF-539 CNS = tested on: SF-539 CNS
UACC-62 melanoma = tested on: UACC-62 melanoma

CCc1cccc(C)c1NC(=O)CC(=O)NNC(N)=S
TGI (SF-295 CNS): > 100 µM | TGI (KM20L2 colon): > 100 µM | TGI (COLO 205 colon): > 100 µM | TGI (SNB-78 CNS): > 100 µM | TGI (EKVX NSCLC): > 100 µM | TGI (LXFL 529 NSCLC): > 100 µM | TGI (M14 melanoma): > 100 µM | TGI (HCT-15 colon): > 100 µM | TGI (CAKI-1 renal): > 100 µM | TGI (U251 CNS): > 100 µM | TGI (OVCAR-3 ovarian): > 100 µM | TGI (HT29 colon): > 100 µM | TGI (MOLT-4 leukemia): > 100 µM | TGI (HCC-2998 colon): > 100 µM | TGI (SK-MEL-5 melanoma): > 100 µM | TGI (NCI-H460 lung): > 100 µM | TGI (RPMI-8226 leukemia): > 100 µM | TGI (DMS 114 small cell lung): > 100 µM | TGI (OVCAR-5 ovarian): > 100 µM | TGI (ACHN renal): > 100 µM | TGI (HOP-92 NSCLC): > 100 µM | TGI (A549 NSCLC): > 100 µM | TGI (NCI-H226 lung): > 100 µM | TGI (SK-OV-3 ovarian): > 100 µM | TGI (OVCAR-8 ovarian): > 100 µM | TGI (NCI-H23 lung): > 100 µM | TGI (SNB-75 CNS): > 100 µM | TGI (HOP-62 NSCLC): > 100 µM | TGI (SN12C renal): > 100 µM | TGI (HOP-18 NSCLC): > 100 µM | TGI (RXF 393 renal): > 100 µM | TGI (UACC-257 melanoma): > 100 µM | TGI (KM12 colon): > 100 µM | TGI (XF 498 CNS): > 100 µM | TGI (UO-31 renal): > 100 µM | TGI (LOX IMVI melanoma): > 100 µM | TGI (MALME-3M melanoma): > 100 µM | TGI (NCI-H522 lung): > 100 µM | TGI (HL-60(TB) leukemia): > 100 µM | TGI (DMS 273 small cell lung): > 100 µM | TGI (SK-MEL-28 melanoma): > 100 µM | TGI (CCRF-CEM leukemia): > 100 µM | TGI (OVCAR-4 ovarian): > 100 µM | TGI (TK-10 renal): > 100 µM | TGI (SW-620 colon): > 100 µM | TGI (786-0 renal): > 100 µM | TGI (K-562 leukemia): > 100 µM | TGI (SNB-19 CNS): > 100 µM | TGI (SF-268 CNS): > 100 µM | TGI (DLD-1 colon): > 100 µM

CCOC(=O)C1=C(OC(OCC)C(C)[Se]c2ccccc2)CCC1 (stereo unspecified)
TGI (IGROV1 ovarian): 81 µM | TGI (SF-295 CNS): 79.3 µM | TGI (KM20L2 colon): 74.2 µM | TGI (COLO 205 colon): 82.2 µM | TGI (SNB-78 CNS): > 100 µM | TGI (EKVX NSCLC): 59.1 µM | TGI (LXFL 529 NSCLC): 37.4 µM | TGI (M14 melanoma): 63.2 µM | TGI (HCT-15 colon): 33.6 µM | TGI (CAKI-1 renal): > 100 µM | TGI (U251 CNS): 20.1 µM | TGI (OVCAR-3 ovarian): 32 µM | TGI (HT29 colon): 77.6 µM | TGI (MOLT-4 leukemia): 58.5 µM | TGI (M19-MEL melanoma): 38.9 µM | TGI (HCC-2998 colon): > 100 µM | TGI (SK-MEL-5 melanoma): 39.9 µM | TGI (NCI-H460 lung): 60 µM | TGI (RPMI-8226 leukemia): 36.5 µM | TGI (OVCAR-5 ovarian): > 100 µM | TGI (ACHN renal): 68.4 µM | TGI (HOP-92 NSCLC): 48.3 µM | TGI (A549 NSCLC): > 100 µM | TGI (NCI-H226 lung): 50.4 µM | TGI (SK-OV-3 ovarian): > 100 µM | TGI (SK-MEL-2 melanoma): > 100 µM | TGI (OVCAR-8 ovarian): 30.1 µM | TGI (SR leukemia): 28 µM | TGI (NCI-H23 lung): 27.9 µM | TGI (A498 renal): > 100 µM | TGI (HCT-116 colon): 38.8 µM | TGI (SNB-75 CNS): 73.6 µM | TGI (HOP-62 NSCLC): > 100 µM | TGI (SN12C renal): 36.5 µM | TGI (HOP-18 NSCLC): 51.7 µM | TGI (RXF 393 renal): 30.2 µM | TGI (UACC-257 melanoma): > 100 µM | TGI (KM12 colon): > 100 µM | TGI (XF 498 CNS): 34.4 µM | TGI (SF-539 CNS): 39.9 µM | TGI (UO-31 renal): 47.1 µM | TGI (LOX IMVI melanoma): 20.4 µM | TGI (MALME-3M melanoma): 89.5 µM | TGI (NCI-H522 lung): 26.9 µM | TGI (UACC-62 melanoma): 43.6 µM | TGI (HL-60(TB) leukemia): 21.2 µM | TGI (DMS 273 small cell lung): 22.4 µM | TGI (SK-MEL-28 melanoma): 62.7 µM | TGI (CCRF-CEM leukemia): 49.7 µM | TGI (OVCAR-4 ovarian): 37.5 µM | TGI (TK-10 renal): > 100 µM | TGI (786-0 renal): 25.1 µM | TGI (K-562 leukemia): > 100 µM | TGI (SNB-19 CNS): > 100 µM | TGI (SF-268 CNS): 32.3 µM | TGI (DLD-1 colon): 40.5 µM
